Source: patent publication US7528115B2, “Carbonate and carbamate prodrugs of thiazolo[4,5-d]pyrimidines” (Anadys Pharmaceuticals, Inc., priority 2006, dated 2009)

Experiment: Animal PK: oral availability of 53b in cynomolgus monkeys after dosing of Formula I prodrugs
Assay type: in vivo
Settings: 53b dosed IV
Method: The ability of prodrugs of the present invention to deliver 53a or 53b to the systemic circulation after oral dosing was assessed by methods well known in the art. For Table 1, each test compound was formulated into a solution for oral dosing by dissolving the compound in either an aqueous buffer such as PBS at pH 3 or pH 7 (in a solution of 100% propylene glycol), or in a solution containing a solubilizer such as Cremophor EL, Tween80, or PEG400. The solution of the compound was dosed by oral gavage to cynomolgus monkeys, generally using a group of four animals for each experiment. Plasma samples were collected from the animals at several time points (usually, from 6 to 12 time points were used) within 24 hours. The plasma samples were frozen quickly after collection, and thawed immediately before sample preparation for bioanalysis. […]
Calibration standards were prepared by serial dilution of an initial concentrated standard of the analyte with either animal plasma or cell culture media. […] The acceptance of the calibration curves was based on the accuracy of the back-calculated standard concentrations. A standard was accepted if the accuracy was within 15% for all the standards, except for the lower limit of quantitation for which 20% was applied. The fitted calibration curve was used to calculate the quantity of analyte in samples. […]

SMILES: Nc1nc2c(sc(=O)n2C2O[C@H](CO)[C@H](O)[C@H]2O)c(=O)[nH]1 (some centres unmarked) [Compound 53b]
- FPO (10 mg/kg (reference for the ratio)): 1
- AUC(0-inf) (cynomolgus monkey, plasma, 10 mg/kg, cynomolgus monkeys, mean of all individual AUC(0-inf) values): 15200 ng·h/mL
